In data set [1] the test system is intracellular HBV DNA. The data set is described as follows: Real-time PCR for intracellular HBV DNA in HepAD38 cells. Format: cell-based. The note with it: 65 hours treatment. (In qPCR the cycle at which signal appears reflects the starting amount.)
In data set [2] the target is Protein (Hepatitis B virus genotype D subtype ayw, UniProt P03146). The data set can be described thus: Protein inhibition rate / EC50 (Table 1, no method described). Type of data set: biochemical. Conditions: for inhibition at 3 µM: @3 μM (footnote *).
Protein, sequence (P03146 whole entry): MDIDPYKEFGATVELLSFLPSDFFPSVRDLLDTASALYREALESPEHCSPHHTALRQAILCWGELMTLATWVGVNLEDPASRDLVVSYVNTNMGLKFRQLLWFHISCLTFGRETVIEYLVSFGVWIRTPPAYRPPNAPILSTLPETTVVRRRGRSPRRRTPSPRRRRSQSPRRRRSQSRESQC
The nature of data set [3]: Cell viability assay (EZ-Cytox), cytotoxicity. Type of data set: cell-based. Conditions: human, HepAD38 cells; for viability at 65 h, 100 µM: read-out: Cytotoxicity % Livability (@100 μM). The method, then:
HepAD38 cells were cultured for 2 days in Dulbecco's Modified Eagle's medium (Welgene, LM001-05) supplemented with 10% FBS without tetracycline. […] After 65 hours of treatment, viability was measured using EZ-Cytox cell viability assay kit (Daeil Lab Service) according to the manufacturer's instructions. The absorbance was measured at 450 nm using a spectrophotometer (Spark, Tecan).

Where [4] appears, read: Hepatitis B virus, HePAD38, 65 h.

Where two headings read alike, the source gives them in different places.

In the case of `O=C(Nc1ccc(F)c(Cl)c1)N(Cc1n[nH]c2c1CCCC2)c1ccc(=O)[nH]c1` [Example 14, 3-(3-chloro-4-fluorophenyl)-1-(6-oxo-1,6-dihydropyridin-3-yl)-1-((4,5,6,7-tetrahydro-1H-indazol-3-yl)methyl)urea], the half-maximal inhibitory concentration (IC50) in data set [1] (setting [4]) came out at 110 nM. In data set [2], it took 7300 nM to reach a half-maximal effect (EC50) and the inhibition at 30 µM stood at 14%. In data set [3], the CC50 at 65 h is greater than 100000 nM and the viability at 65 h, 100 µM worked out at 95.4%.
The corresponding values for `O=C(Nc1ccc(F)c(Cl)c1)N(Cc1n[nH]c2c1CCCC2)c1cc[nH]c(=O)c1` [Example 15, 3-(3-chloro-4-fluorophenyl)-1-(2-oxo-1,2-dihydropyridin-4-yl)-1-((4,5,6,7-tetrahydro-1H-indazol-3-yl)methyl)urea] are 310 nM, 1400 nM, 64.7%, greater than 100000 nM and 84%.
Taken in the same sequence, the figures for `COC(=O)c1ccc(N(Cc2n[nH]c3c2CCCC3)C(=O)Nc2ccc(F)c(Cl)c2)cc1` [Example 31, methyl 4-(3-(3-chloro-4-fluorophenyl)-1-((4,5,6,7-tetrahydro-1H-indazol-3-yl)methyl)ureido)benzoate] were 410 nM, 3300 nM, 90.4%, greater than 100000 nM and 91.2%.
Taken in the same sequence, the figures for `COc1ccc(N(Cc2n[nH]c3c2CCCC3)C(=O)Nc2ccc(F)c(Cl)c2)cc1` [Example 32, 3-(3-chloro-4-fluorophenyl)-1-(4-methoxyphenyl)-1-((4,5,6,7-tetrahydro-1H-indazol-3-yl)methyl)urea] were 9.9 nM, 9400 nM, 5%, 81400 nM and 4.1%.
In the case of `COc1ccc(N(Cc2n[nH]c3c2CN(C(C)=O)CC3)C(=O)Nc2ccc(F)c(Cl)c2)cc1` [Example 33, 1-((5-acetyl-4,5,6,7-tetrahydro-1H-pyrazolo[4,3-c]pyridin-3-yl)methyl)-3-(3-chloro-4-fluorophenyl)-1-(4-methoxyphenyl)urea], in data set [1] (setting [4]), the IC50 is greater than 1100 nM. The same molecule had an inhibition at 30 µM in data set [2] of 77.8%. Besides, in data set [3], the viability at 65 h, 100 µM stood at 96%.
Taken in the same sequence, the figures for `COc1ccc(N(Cc2cc[nH]n2)C(=O)Nc2ccc(F)c(Cl)c2)cc1` [Example 34, 1-((1H-pyrazol-3-yl)methyl)-3-(3-chloro-4-fluorophenyl)-1-(4-methoxyphenyl)urea] were greater than 1100 nM, 55.2% and 92.9%.
Taken in the same sequence, the figures for `COc1ccc(N(Cc2ccn(C)n2)C(=O)Nc2ccc(F)c(Cl)c2)cc1` [Example 35, 3-(3-chloro-4-fluorophenyl)-1-(4-methoxyphenyl)-1-((1-methyl-1H-pyrazol-3-yl)methyl)urea] were greater than 1100 nM, 33.7% and 90.5%.
In turn, `COc1ccc(N(Cc2nn(C)c3c2CCCC3)C(=O)Nc2ccc(F)c(Cl)c2)cc1` [Example 36, 3-(3-chloro-4-fluorophenyl)-1-(4-methoxyphenyl)-1-((1-methyl-4,5,6,7-tetrahydro-1H-indazol-3-yl)methyl)urea] registered a half-inhibitory concentration (IC50) in data set [1] (setting [4]) of 36 nM. In data set [2], this molecule gave a 50% effective concentration (EC50) of 9200 nM and an inhibition at 30 µM of 91.6%. Further, in data set [3], the 50% cytotoxic concentration (CC50) at 65 h was greater than 100000 nM and the viability at 65 h, 100 µM worked out at 100%.
On to `COc1ccc(N(Cc2n[nH]c3c2CN(C)CC3)C(=O)Nc2ccc(F)c(Cl)c2)cc1` [Example 37, 3-(3-chloro-4-fluorophenyl)-1-(4-methoxyphenyl)-1-((5-methyl-4,5,6,7-tetrahydro-1H-pyrazolo[4,3-c]pyridin-3-yl)methyl)urea], for which, in data set [1] (setting [4]), the IC50 is greater than 1100 nM. In addition, 30 µM produced 28.3% inhibition in data set [2]. Moreover, the viability at 65 h, 100 µM in data set [3] stood at 22.4%.
`COc1ccc(N(Cc2n[nH]c3c2COCC3)C(=O)Nc2ccc(F)c(Cl)c2)cc1` [Example 38, 3-(3-chloro-4-fluorophenyl)-1-(4-methoxyphenyl)-1-((1,4,6,7-tetrahydropyrano[4,3-c]pyrazol-3-yl)methyl)urea] yielded a concentration for half-maximal inhibition (IC50) in data set [1] (setting [4]) of 18 nM. For the same molecule, in data set [2], a half-maximal effect (EC50) was put at 1600 nM and the inhibition at 30 µM is 80%. Also, in data set [3], the CC50 at 65 h was greater than 100000 nM and the viability at 65 h, 100 µM came to 104%.
Taken in the same sequence, the figures for `COc1ccc(N(Cc2n[nH]c3c2CC(F)(F)CC3)C(=O)Nc2ccc(F)c(Cl)c2)cn1` [Example 40, 3-(3-chloro-4-fluorophenyl)-1-((5,5-difluoro-4,5,6,7-tetrahydro-1H-indazol-3-yl)methyl)-1-(6-methoxypyridin-3-yl)urea] were 16 nM, 3800 nM, 99.5%, 82500 nM and 4.6%.
In the case of `COc1ccc(N(Cc2n[nH]c3c2CCC3)C(=O)Nc2ccc(F)c(Cl)c2)cn1` [Example 41, 3-(3-chloro-4-fluorophenyl)-1-(6-methoxypyridin-3-yl)-1-((1,4,5,6-tetrahydrocyclopenta[c]pyrazol-3-yl)methyl)urea], in data set [1] (setting [4]), the half-inhibitory concentration (IC50) came to 18 nM. For the same molecule, in data set [2], the response was half-maximal at 2600 nM (EC50) and the inhibition at 3 µM was found to be 59%. In data set [3], the CC50 at 65 h is greater than 100000 nM and the viability at 65 h, 100 µM is 97.8%.
The corresponding values for `COc1ccc(N(Cc2n[nH]c3c2CCCC3)C(=O)Nc2ccc(F)c(Cl)c2)cn1` [Example 42, 3-(3-chloro-4-fluorophenyl)-1-(6-methoxypyridin-3-yl)-1-((4,5,6,7-tetrahydro-1H-indazol-3-yl)methyl)urea] are 37 nM, 4300 nM, 13%, greater than 100000 nM and 99.5%.
In data set [1] (setting [4]), `COc1ccc(N(Cc2n[nH]c3ccccc23)C(=O)Nc2ccc(F)c(Cl)c2)cn1` [Example 43, 1-((1H-indazol-3-yl)methyl)-3-(3-chloro-4-fluorophenyl)-1-(6-methoxypyridin-3-yl)urea] registered an IC50 of 43 nM. In data set [2], this molecule displayed a half-maximal effective concentration (EC50) of 6060 nM and an inhibition at 30 µM of 96.7%. Besides, in data set [3], the CC50 at 65 h was greater than 100000 nM and the viability at 65 h, 100 µM was 92%.
Consider `COc1ccc(N(Cc2n[nH]c3c2CC(CO)CC3)C(=O)Nc2ccc(F)c(Cl)c2)cn1` (stereo not drawn) [Example 44, 3-(3-chloro-4-fluorophenyl)-1-((5-(hydroxymethyl)-4,5,6,7-tetrahydro-1H-indazol-3-yl)methyl)-1-(6-methoxypyridin-3-yl)urea], for which the IC50 in data set [1] (setting [4]) was greater than 1100 nM. For the same molecule, the inhibition at 30 µM in data set [2] is 58%. In addition, in data set [3], the cytotoxic concentration (CC50) at 65 h was greater than 100000 nM and the viability at 65 h, 100 µM came out at 100%.
Regarding `COc1ccc(N(Cc2n[nH]c3c2CSCC3)C(=O)Nc2ccc(F)c(Cl)c2)cn1` [Example 45, 3-(3-chloro-4-fluorophenyl)-1-(6-methoxypyridin-3-yl)-1-((1,4,6,7-tetrahydrothiopyrano[4,3-c]pyrazol-3-yl)methyl)urea], half-maximal inhibition in data set [1] (setting [4]) (IC50) was put at 12 nM. In data set [2], this molecule yielded a 50% effective concentration (EC50) of 3300 nM and an inhibition at 30 µM of 95.6%. In data set [3], the CC50 at 65 h is greater than 50000 nM and the viability at 65 h, 100 µM was 3.3%.
As to `COc1ccc(N(Cc2cc(C)nn2C)C(=O)Nc2ccc(F)c(Cl)c2)cc1` [Example 108, 3-(3-chloro-4-fluorophenyl)-1-((1,3-dimethyl-1H-pyrazol-5-yl)methyl)-1-(4-methoxyphenyl)urea], inhibition in data set [1] (setting [4]) was half-maximal at 360 nM (IC50). Also, in data set [2], the midpoint of the response, the EC50, lay at 5300 nM and the inhibition at 30 µM is 89.9%.
In the case of `COc1ccc(N(Cc2cn(C)nc2C)C(=O)Nc2ccc(F)c(Cl)c2)cc1` [Example 159, 3-(3-chloro-4-fluorophenyl)-1-((1,3-dimethyl-1H-pyrazol-4-yl)methyl)-1-(4-methoxyphenyl)urea], in data set [1] (setting [4]), the half-maximal inhibitory concentration (IC50) was greater than 3300 nM. Besides, the inhibition at 30 µM in data set [2] was found to be 4%.
Molecule `COC12CC(N(Cc3cc(C(F)(F)F)[nH]n3)C(=O)Nc3cc(F)c(F)c(F)c3)(C1)C2` [Example 222, 1-(3-methoxybicyclo[1.1.1]pentan-1-yl)-1-((5-(trifluoromethyl)-1H-pyrazol-3-yl)methyl)-3-(3,4,5-trifluorophenyl)urea] gave an IC50 in data set [1] (setting [4]) of 120 nM. Besides, in data set [3], the midpoint of cytotoxicity, the CC50 at 65 h, lay at 31700 nM and the viability at 65 h, 100 µM was 2.5%.
The corresponding values for `COc1ncc(N(Cc2cc(C#N)[nH]n2)C(=O)Nc2cc(F)c(F)c(F)c2)cn1` [Example 223, 1-((5-cyano-1H-pyrazol-3-yl)methyl)-1-(2-methoxypyrimidin-5-yl)-3-(3,4,5-trifluorophenyl)urea] are 70 nM, greater than 100000 nM and 87.5%.
The corresponding values for `COc1ncc(N(Cc2cc(C(F)(F)F)[nH]n2)C(=O)Nc2cc(F)c(F)c(F)n2)cn1` [Example 224, 1-(2-methoxypyrimidin-5-yl)-1-((5-(trifluoromethyl)-1H-pyrazol-3-yl)methyl)-3-(4,5,6-trifluoropyridin-2-yl)urea] are 210 nM, greater than 100000 nM and 100%.
The corresponding values for `COc1ncc(N(Cc2cc(C(F)(F)F)[nH]n2)C(=O)Nc2cccc(C(F)(F)F)n2)cn1` [Example 225, 1-(2-methoxypyrimidin-5-yl)-1-((5-(trifluoromethyl)-1H-pyrazol-3-yl)methyl)-3-(6-(trifluoromethyl)pyridin-2-yl)urea] are 210 nM, greater than 100000 nM and 105%.
Regarding `O=C(Nc1cc(F)c(F)c(F)c1)c1ccc(F)c(S(=O)(=O)N2CCC(O)CC2)c1` [NVR, reference compound], the IC50 in data set [1] (read-out: IC50) was determined as 340 nM. Also, the response in data set [2] was half-maximal at 3600 nM (EC50).

One may read the IC50 as the concentration at which inhibition is half-maximal. What is called EC50 is the concentration that produces a half-maximal response. Low values mean an effect from little substance, high ones a need for much substance. One may read the inhibition as the percentage by which the read-out fell short of the control. The low end stands for a weak effect, the high end for a strong effect. Broadly, the CC50 is the concentration giving 50% cytotoxicity. The low end stands for harm at low concentration, the high end for better tolerance by the cells.

The values above are taken from patent US20250009742A1 (priority 2021, published 2025).
